Source: patent publication US20150111864A1, “CRYSTALLINE FORM OF A BETA-LACTAMASE INHIBITOR” (Cubist Pharmaceuticals, Inc., priority 2013, published 2015)

How the values were obtained:
[1] = test system: Eco.2781 (KPC-2, TEM+, clinical); assay: Standard BLI Potentiation MIC Assay in Combination with Ceftolozane; format: cell-based; conditions: Escherichia coli, read-out: MIC of Ceftolozane, No BLI
Method: (§1) The experimental protocol was performed according to Clinical and Laboratory Standards Institute (CLSI) guidelines with modifications as described below (CLSI guidelines can be derived from the CLSI document M07-A9 published in January 2012: “Methods for Dilution Antimicrobial Susceptibility Tests for Bacteria That Grow Aerobically; Approved Standard-Ninth Edition”).
(§2) Frozen glycerol stocks of laboratory engineered, isogenic E. coli strains, which contain cloned β-lactamase expressing plasmids were used to streak for isolated colonies on rich, selective LB agar supplemented with 25 μg/mL tetracycline to maintain the plasmid. All strains were incubated at 37° C. for 18-24 hrs.
(§3) On the day of testing, primary cultures were started by scraping off 5-10 colonies from the TSAB plates containing clinical strains or the tetracycline supplemented LB plates containing engineered strains. The clinical strain material was suspended in ˜5 mL of cation adjusted Mueller Hinton Broth (CAMHB) in 14 mL culture tubes. The engineered strain material was suspended in CAMHB (supplemented with 25 μg/mL tetracycline) in 14 mL culture tubes. All strains were incubated at 37° C. with aeration (200 rpm) for ˜2 hrs until the optical density at 600 nm (OD600) was ≧0.1.
(§4) The two compound components of the assay were each diluted in CAMHB and added to the 96-well broth microdilution assay plates. 50 μL of the β-lactam was added to each well of the assay plate in 2-fold dilutions with final concentrations ranging from 128 to 0.13 μg/mL. 25 μL of the BLI compound was added to all wells in the broth microdilution plates at a final concentration of 4 μg/mL. Inoculum cultures were prepared by standardizing the primary cultures to OD600=0.1 and then adding 20 μL of the adjusted primary culture per 1 mL CAMHB for clinical strains or CAMHB (supplemented with tetracycline at 100 μg/mL) for engineered strains, so that the final inoculum density was ˜10^5 colony forming units per milliliter. Diluted inoculum cultures were used to inoculate 25 μL per well in 96-well broth microdilution assay plates.

[2] = test system: Kpn.2918 (KPC-3, SHV+, TEM+, clinical); assay: as above; format: cell-based; conditions: Klebsiella pneumoniae, read-out: MIC of Ceftolozane, No BLI
Method: as §1, §2, §3, §4

[3] = test system: Kpn.2917 (KPC-2, SHV+, clinical); assay: as above; format: cell-based; conditions: Klebsiella pneumoniae, read-out: MIC of Ceftolozane, No BLI
Method: as §1, §2, §3, §4

[4] = test system: Kpn.2913 (KPC-2, SHV+, clinical); assay: as above; format: cell-based; conditions: Klebsiella pneumoniae, read-out: MIC of Ceftolozane, No BLI
Method: as §1, §2, §3, §4

[5] = test system: Kpn.2478 (KPC-3, TEM+, clinical); assay: as above; format: cell-based; conditions: Klebsiella pneumoniae, read-out: MIC of Ceftolozane, No BLI
Method: as §1, §2, §3, §4

[6] = test system: Kpn.2490 (KPC-3, SHV+, TEM+, clinical); assay: as above; format: cell-based; conditions: Klebsiella pneumoniae, read-out: MIC of Ceftolozane, No BLI
Method: as §1, §2, §3, §4

[7] = test system: Kpn.2909 (KPC-3, SHV+, TEM+, clinical); assay: as above; format: cell-based; conditions: Klebsiella pneumoniae, read-out: MIC of Ceftolozane, No BLI
Method: as §1, §2, §3, §4

Eco.2711 (KPC, clinical) = assay: as above; format: cell-based; conditions: Escherichia coli, read-out: MIC of Ceftolozane, No BLI
Method: as §1, §2, §3, §4

[8] = test system: Kpn.571 (TEM-26, clinical); assay: as above; format: cell-based; conditions: Klebsiella pneumoniae, read-out: MIC of Ceftolozane, No BLI
Method: as §1, §2, §3, §4

[9] = test system: Kpn.2783 (CTX-M-15, SHV+, TEM+, clinical); assay: as above; format: cell-based; conditions: Klebsiella pneumoniae, read-out: MIC of Ceftolozane, No BLI
Method: as §1, §2, §3, §4

[10] = test system: Eco.2806 (KPC-2, isogenic); assay: as above; format: cell-based; conditions: Escherichia coli, read-out: MIC of Ceftolozane, No BLI
Method: as §1, §2, §3, §4

[11] = test system: Eco.2840 (KPC-4, isogenic); assay: as above; format: cell-based; conditions: Escherichia coli, read-out: MIC of Ceftolozane, No BLI
Method: as §1, §2, §3, §4

[12] = test system: Kpn.2926 (CTX-M-15, OXA-48, clinical); assay: as above; format: cell-based; conditions: Klebsiella pneumoniae, read-out: MIC of Ceftolozane, No BLI
Method: as §1, §2, §3, §4

[13] = test system: Kpn.2914 (KPC-2, SHV+, clinical); assay: as above; format: cell-based; conditions: Klebsiella pneumoniae, read-out: MIC of Ceftolozane, No BLI
Method: as §1, §2, §3, §4

[14] = test system: Pae.2808 (KPC-2, clinical); assay: as above; format: cell-based; conditions: Pseudomonas aeruginosa, read-out: MIC of Ceftolozane, No BLI
Method: as §1, §2, §3, §4

Cfr.568 (AmpC, clinical) = assay: as above; format: cell-based, Citrobacter spp; conditions: Citrobacter, read-out: MIC of Ceftolozane, No BLI
Method: as §1, §2
(§5) On the day of testing, primary cultures were started by scraping off 5-10 colonies from the TSAB plates containing clinical strains or the tetracycline supplemented LB plates containing engineered strains. […]
(§6) Plates were incubated for 18-20 hours at 37° C. with aeration (200 rpm). Following incubation, growth was confirmed visually placing plates over a viewing apparatus (stand with a mirror underneath) and then OD600 was measured using a SpectraMax 340PC384 plate reader (Molecular Devices, Sunnyvale, Calif.). Growth was defined as turbidity that could be detected with the naked eye or achieving minimum OD600 of 0.1. […]

[15] = test system: Eco.2491 (CMY-2, clinical); assay: as above; format: cell-based, Escherichia coli; conditions: Escherichia coli, read-out: MIC of Ceftolozane, No BLI
Method: as §1, §2, §3
(§7) The two compound components of the assay were each diluted in CAMHB and added to the 96-well broth microdilution assay plates. 50 μL of the β-lactam was added to each well of the assay plate in 2-fold dilutions with final concentrations ranging from 128 to 0.13 μg/mL. 25 μL of the BLI compound was added to all wells in the broth microdilution plates at a final concentration of 4 μg/mL. Inoculum cultures were prepared by standardizing the primary cultures to OD600=0.1 and then adding 20 μL of the adjusted primary culture per 1 mL CAMHB for clinical strains or CAMHB (supplemented with tetracycline at 100 μg/mL) for engineered strains, so that the final inoculum density was ˜10^5 colony forming units per milliliter. Diluted inoculum cultures were used to inoculate 25 μL per well in 96-well broth microdilution assay plates. The final volume of each well was 100 μL and contained a β-lactam at different concentrations, a BLIcompound at 4 μg/mL concentration, the bacterial culture at an OD600 of approximately 0.001 and when necessary tetracycline at 25 μg/mL.
(§8) Plates were incubated for 18-20 hours at 37° C. with aeration (200 rpm). Following incubation, growth was confirmed visually placing plates over a viewing apparatus (stand with a mirror underneath) and then OD600 was measured using a SpectraMax 340PC384 plate reader (Molecular Devices, Sunnyvale, Calif.). Growth was defined as turbidity that could be detected with the naked eye or achieving minimum OD600 of 0.1. MIC values were defined as the lowest concentration producing no visible turbidity.

[16] = test system: Eco.2845 (OXA-15, isogenic); assay: as above; format: cell-based, Escherichia coli; conditions: Escherichia coli, read-out: MIC of Ceftolozane, No BLI
Method: as §1, §2, §3, §7, §8

[17] = test system: Eco.2843 (DHA-1, isogenic); assay: as above; format: cell-based, Escherichia coli; conditions: Escherichia coli, read-out: MIC of Ceftolozane, No BLI
Method: as §1, §2, §3, §7, §8

Ecl.569 (AmpC, clinical) = assay: as above; format: cell-based, Enterobacter spp; conditions: Enterobacter, read-out: MIC of Ceftolozane, No BLI
Method: as §1, §2, §5, §6

[18] = test system: Panel of Isogenic and Clinical Strains Expressing β-Lactamases; assay: Standard BLI Potentiation MIC Assay in Combination with Ceftolozane, whole panel; format: cell-based; conditions: panel of 24 strains; no BLI
Method: as §1, §2, §3, §7, §6

[19] = test system: Eco.2902 (Aba-ADC-33, isogenic); assay: Standard BLI Potentiation MIC Assay in Combination with Ceftolozane; format: cell-based; conditions: Escherichia coli, read-out: MIC of Ceftolozane, No BLI
Method: as §1, §2, §5, §6

[20] = test system: Pae.2757 (AmpC over-expn, clinical); assay: as above; format: cell-based, Pseudomonas aeruginosa; conditions: Pseudomonas aeruginosa, read-out: MIC of Ceftolozane, No BLI
Method: as §1, §2, §3, §7, §8

[21] = test system: Pae.2885 (AmpC, clinical); assay: as above; format: cell-based, Pseudomonas aeruginosa; conditions: Pseudomonas aeruginosa, read-out: MIC of Ceftolozane, No BLI
Method: as §1, §2, §3, §7, §8

[22] = test system: Pae.2863 (AmpC de-repress, clinical); assay: as above; format: cell-based, Pseudomonas aeruginosa; conditions: Pseudomonas aeruginosa, read-out: MIC of Ceftolozane, No BLI
Method: as §1, §2, §3, §7, §8

## Cn1c(N)c(NC(=O)NCCN)c[n+]1CC1=C(C(=O)O)N2C(=O)[C@@H](NC(=O)/C(=N\OC(C)(C)C(=O)[O-])c3nsc(N)n3)[C@H]2SC1 [Ceftolozane]
[1]
  MIC: 4 to 8 µg/mL
[2]
  MIC: > 64 µg/mL
[3]
  MIC: 16 to 32 µg/mL
[4]
  MIC: 16 to 32 µg/mL
[5]
  MIC: > 64 µg/mL
[6]
  MIC: > 64 µg/mL
[7]
  MIC: > 64 µg/mL
Eco.2711 (KPC, clinical)
  MIC: 16 to 32 µg/mL
[8]
  MIC: 16 to 32 µg/mL
[9]
  MIC: > 64 µg/mL
[10]
  MIC: > 64 µg/mL
[11]
  MIC: > 64 µg/mL
[12]
  MIC: > 64 µg/mL
[13]
  MIC: 16 to 32 µg/mL
[14]
  MIC: > 64 µg/mL
Cfr.568 (AmpC, clinical)
  MIC: > 64 µg/mL
[15]
  MIC: 16 to 32 µg/mL
[16]
  MIC: > 64 µg/mL
[17]
  MIC: > 64 µg/mL
Ecl.569 (AmpC, clinical)
  MIC: > 64 µg/mL
[18]
  MIC50: > 64 µg/mL
  MIC90: > 64 µg/mL
[19]
  MIC: > 64 µg/mL
[20]
  MIC: 4 to 8 µg/mL
[21]
  MIC: 1 to 2 µg/mL
[22]
  MIC: 4 to 8 µg/mL
